Reference: patent US11083725B2 (priority 2014, dated 2021)

Tested on: NHBE cells
Assay: Biolog metabolic array: substrate use by NHBE cells with or without CA09 infection
Type: cell-based, human
Conditions: for Substrate use, 590 nm absorbance normalized to zero hour, 1 hr: Biolog PMM2, 1 hr; for Substrate use, 590 nm absorbance normalized to zero hour, 5 hr: Biolog PMM2, 5 hr; for Substrate use, 590 nm absorbance normalized to zero hour, 7 hr: Biolog PMM2, 7 hr
[1] = Control (uninfected) NHBE cells
[2] = Virus (CA09-infected NHBE cells, MOI 1)
[3] = Virus: CA09-infected NHBE cells, MOI 1, Biolog PMM2

Compound	590 nm absorbance normalized to zero hour (substrate use), 1 hr [1]	590 nm absorbance normalized to zero hour (substrate use), 2 hr [1]	590 nm absorbance normalized to zero hour (substrate use), 3 hr [1]	590 nm absorbance normalized to zero hour (substrate use), 4 hr [1]	590 nm absorbance normalized to zero hour (substrate use), 6 hr [1]	590 nm absorbance normalized to zero hour (substrate use), 8 hr [1]	590 nm absorbance normalized to zero hour (substrate use), 9 hr [1]	590 nm absorbance normalized to zero hour (substrate use), 10 hr [1]	590 nm absorbance normalized to zero hour (substrate use), 11 hr [1]	Substrate use, 590 nm absorbance normalized to zero hour, 1 hr [1]	Substrate use, 590 nm absorbance normalized to zero hour, 5 hr [1]	Substrate use, 590 nm absorbance normalized to zero hour, 7 hr [1]	590 nm absorbance normalized to zero hour (substrate use), 1 hr [2]	590 nm absorbance normalized to zero hour (substrate use), 2 hr [2]	590 nm absorbance normalized to zero hour (substrate use), 3 hr [2]	590 nm absorbance normalized to zero hour (substrate use), 5 hr [2]	590 nm absorbance normalized to zero hour (substrate use), 6 hr [2]	590 nm absorbance normalized to zero hour (substrate use), 7 hr [2]	590 nm absorbance normalized to zero hour (substrate use), 8 hr [2]	590 nm absorbance normalized to zero hour (substrate use), 9 hr [2]	further results
Chondroitin Sulfate C	1.60	1.94	2.10	2.19	3.28	2.56	2.92	3.00	2.49	1.60	2.50	2.63	1.22	1.41	1.45	1.62	1.61	1.63	1.65	1.72	590 nm absorbance normalized to zero hour (substrate use), 0 hr [1]: 1.00; Substrate use, 590 nm absorbance normalized to zero hour, 0 hr (Control (uninfected) NHBE cells, Biolog PMM2, 0 hr): 1.00; 590 nm absorbance normalized to zero hour (substrate use), 0 hr [2]: 1.00; 590 nm absorbance normalized to zero hour (substrate use), 10 hr [2]: 1.69; 590 nm absorbance normalized to zero hour (substrate use), 11 hr [2]: 1.75; 590 nm absorbance normalized to zero hour (substrate use), 0 hr [3]: 1.00; 590 nm absorbance normalized to zero hour (substrate use), 1 hr [3]: 1.22; 590 nm absorbance normalized to zero hour (substrate use), 2 hr [3]: 1.41; 590 nm absorbance normalized to zero hour (substrate use), 3 hr [3]: 1.45; 590 nm absorbance normalized to zero hour (substrate use), 5 hr [3]: 1.62; 590 nm absorbance normalized to zero hour (substrate use), 6 hr [3]: 1.61; 590 nm absorbance normalized to zero hour (substrate use), 7 hr [3]: 1.63; 590 nm absorbance normalized to zero hour (substrate use), 8 hr [3]: 1.65; 590 nm absorbance normalized to zero hour (substrate use), 9 hr [3]: 1.72; 590 nm absorbance normalized to zero hour (substrate use), 10 hr [3]: 1.69; 590 nm absorbance normalized to zero hour (substrate use), 11 hr [3]: 1.75
OC[C@@H](O)[C@@H](O)[C@@H](O)CO [Adonitol]	0.57	0.78	0.93	0.98	1.35	1.40	1.55	1.43	1.46	0.57	1.16	1.28	0.21	0.26	0.29	0.34	0.36	0.38	0.39	0.42	590 nm absorbance normalized to zero hour (substrate use), 4 hr [2]: 0.31; 590 nm absorbance normalized to zero hour (substrate use), 10 hr [2]: 0.44; 590 nm absorbance normalized to zero hour (substrate use), 11 hr [2]: 0.43; 590 nm absorbance normalized to zero hour (substrate use), 1 hr [3]: 0.21; 590 nm absorbance normalized to zero hour (substrate use), 2 hr [3]: 0.26; 590 nm absorbance normalized to zero hour (substrate use), 3 hr [3]: 0.29; 590 nm absorbance normalized to zero hour (substrate use), 4 hr [3]: 0.31; 590 nm absorbance normalized to zero hour (substrate use), 5 hr [3]: 0.34; 590 nm absorbance normalized to zero hour (substrate use), 6 hr [3]: 0.36; 590 nm absorbance normalized to zero hour (substrate use), 7 hr [3]: 0.38; 590 nm absorbance normalized to zero hour (substrate use), 8 hr [3]: 0.39; 590 nm absorbance normalized to zero hour (substrate use), 9 hr [3]: 0.42; 590 nm absorbance normalized to zero hour (substrate use), 10 hr [3]: 0.44; 590 nm absorbance normalized to zero hour (substrate use), 11 hr [3]: 0.43
Nc1ncnc2c1ncn2[C@@H]1O[C@H](CO)[C@@H](O)[C@H]1O [Adenosine]	2.85	1.34	1.67	1.86	2.50	3.10	3.78	3.46	3.32	2.85	2.21	2.97	1.39	1.23	1.60	1.96	2.16	2.38	2.56	2.88	590 nm absorbance normalized to zero hour (substrate use), 4 hr [2]: 1.77; 590 nm absorbance normalized to zero hour (substrate use), 10 hr [2]: 2.56; 590 nm absorbance normalized to zero hour (substrate use), 11 hr [2]: 2.60; 590 nm absorbance normalized to zero hour (substrate use), 1 hr [3]: 1.39; 590 nm absorbance normalized to zero hour (substrate use), 2 hr [3]: 1.23; 590 nm absorbance normalized to zero hour (substrate use), 3 hr [3]: 1.60; 590 nm absorbance normalized to zero hour (substrate use), 4 hr [3]: 1.77; 590 nm absorbance normalized to zero hour (substrate use), 5 hr [3]: 1.96; 590 nm absorbance normalized to zero hour (substrate use), 6 hr [3]: 2.16; 590 nm absorbance normalized to zero hour (substrate use), 7 hr [3]: 2.38; 590 nm absorbance normalized to zero hour (substrate use), 8 hr [3]: 2.56; 590 nm absorbance normalized to zero hour (substrate use), 9 hr [3]: 2.88; 590 nm absorbance normalized to zero hour (substrate use), 10 hr [3]: 2.56; 590 nm absorbance normalized to zero hour (substrate use), 11 hr [3]: 2.60
